This note sets out measurements from US7521533B2, “Tryptase polypeptide and uses thereof” (priority 2002, dated 2009).

Entries after “also recorded” stand apart in the source; their conditions may differ.

This experiment can be described thus: Cleavage of trypsin-susceptible pNA chromogenic substrate, reverse-phase HPLC. It is filed as biochemical. As to conditions: for ability to cleave D-Ile-Phe-Lys pNA / ability to cleave N-Benzoyl-Pro-Phe-Arg-pNA / ability to cleave N-p-Tosyl-Gly-Pro-Lys 4-pNA: ~2 μg enzyme, 10 μg substrate, 37° C. 2 hrs, 100 mM HEPES pH7.5 10% glycerol, no exogenous heparin. How it is done: The enzymatic activity of recombinant δ tryptase was evaluated by testing its ability to cleave a panel of three trypsin-susceptible p-nitroanilide (pNA) chromogenic substrates; N-Benzoyl-Pro-Phe-Arg-pNA, D-Ile-Phe-Lys pNA, and N-p-Tosyl-Gly-Pro-Lys 4-pNA (Sigma-Adrich, St Louis, Mo.) and was compared to that of rαII tryptase, and commercially available native human lung tryptase (ICN, Costa Mesa, Calif.) and recombinant human lung βII tryptase (Promega, Madison, Wis.). Pro-δ tryptase (ie prior to removal of the EK susceptible activation peptide), recombinant EK alone, and buffer alone acted as negative controls. Approximately equal amounts (˜2 μg) of the enzymes were incubated with each substrate (10 μg) at 37° C. for 2 hrs, in 100 mM HEPES pH7.5 10% glycerol (total reaction volume=50 μl), and then analysed by HPLC using a reverse-phase column (4.6×50 […] RP18 Xterra, Waters, Bedford, Mass.). In this initial investigation no exogenous heparin was added. Substrate cleavage was determined by the detection of new peaks representing the separated peptide and nitroanilide moieties. The amount of substrate cleaved was estimated by measuring the area under the HPLC peak that corresponded to the liberated peptide moiety using Delta T Scan software version 2.04 (Delta T Devices Ltd, Cambridge, UK). The retention time of the liberated nitroanilide was constant and was experimentally determined to be 2.67 mins.

Turning to “pro-rδ tryptase: Recombinant δ tryptase prior to removal of the EK susceptible activation peptide; negative control”, the “ability to cleave D-Ile-Phe-Lys pNA” value was “No substrate cleavage was detected”.
On to “rβII tryptase: Commercially available recombinant human lung βII tryptase (Promega) [reference compound]”, for which the “ability to cleave D-Ile-Phe-Lys pNA” value is recorded as “cleave all three substrates”, the “ability to cleave N-Benzoyl-Pro-Phe-Arg-pNA” value is reported as “cleave all three substrates” and the “ability to cleave N-p-Tosyl-Gly-Pro-Lys 4-pNA” value is “cleave all three substrates”.
Take “rδ tryptase: Recombinant human δ tryptase expressed in bacterial cells, refolded, mature form generated by enterokinase cleavage”: the “ability to cleave D-Ile-Phe-Lys pNA” value is recorded as “able to cleave; also recorded: cleaves”, the “ability to cleave N-Benzoyl-Pro-Phe-Arg-pNA” value is reported as “ineffective” and the “ability to cleave N-p-Tosyl-Gly-Pro-Lys 4-pNA” value is reported as “ineffective”. In addition, the “amount of D-Ile-Phe-Lys pNA substrate cleaved, as much as that cleaved by rβII tryptase” value (area under HPLC peak of liberated peptide moiety, relative to rβII tryptase) is “approximately 12%”.
